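All cell lines were grown in 96-well plates and treated with compound for 48 hours. GI50: concentration for 50% inhibition of growth.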 Activity calls are given as the source filed them. Rule as the data show it: active = GI50 up to about 1.1 µM and inactive = higher.
Key:
Experiment in all cases: inhibition of tumour cell growth, NCI panel, 48 h
COLO 205 = test system: COLO 205
HCC 2998 = test system: HCC 2998
HCT-116 = test system: HCT-116
HL-60 = test system: HL-60
KM12 = test system: KM12
M14 = test system: M14
MCF7 = test system: MCF7
MDA-MB-231 = test system: MDA-MB-231
NCI-H460 = test system: NCI-H460
OVCAR-3 = test system: OVCAR-3
SF-295 = test system: SF-295
SK-MEL-2 = test system: SK-MEL-2
SW-620 = test system: SW-620
UACC-62 = test system: UACC-62
CCRF-CEM = test system: CCRF-CEM
K562 = test system: K562
MOLT-4 = test system: MOLT-4
Malme-3M = test system: Malme-3M
A498 = test system: A498

Measured: GI50

CC1=CC(=O)/C(=C/Nc2nc(-c3cccc([N+](=O)[O-])c3)cs2)C(=O)O1
inactive: COLO 205 85.7 µM | HCC 2998 31.9 µM | HCT-116 37.7 µM | HL-60 13.6 µM | KM12 47.2 µM | M14 64.1 µM | MCF7 41.6 µM | MDA-MB-231 57.4 µM | NCI-H460 > 100 µM | OVCAR-3 > 100 µM | SF-295 > 100 µM | SK-MEL-2 > 100 µM | SW-620 43.4 µM | UACC-62 32.5 µM

CN(C(=O)c1ccc2c(c1)sc1c(=O)n(C)c3ccccc3c12)c1ccccc1
inactive: CCRF-CEM > 100 µM | COLO 205 > 100 µM | HCC 2998 > 100 µM | HCT-116 > 100 µM | HL-60 > 100 µM | K562 > 100 µM | KM12 > 100 µM | M14 > 100 µM | MCF7 > 100 µM | MDA-MB-231 > 100 µM | MOLT-4 > 100 µM | Malme-3M > 100 µM | NCI-H460 > 100 µM | OVCAR-3 > 100 µM | SF-295 > 100 µM | SK-MEL-2 > 100 µM | SW-620 > 100 µM | UACC-62 > 100 µM

O=C1OC(c2cccc(C(F)(F)F)c2)c2ccc3ccccc3c21 (stereo not given)
inactive: A498 > 10 µM | CCRF-CEM 9.06 µM | COLO 205 > 10 µM | HCC 2998 > 10 µM | HCT-116 > 10 µM | HL-60 5.5 µM | K562 4.76 µM | KM12 > 10 µM | M14 > 10 µM | MOLT-4 6.31 µM | Malme-3M > 10 µM | NCI-H460 > 10 µM | OVCAR-3 > 10 µM | SF-295 12.2 µM | SK-MEL-2 > 10 µM | SW-620 > 10 µM | UACC-62 7.41 µM

NC(=S)N/C=C1\C(=O)Oc2ccccc2C1=O
inactive: A498 51.4 µM | CCRF-CEM > 100 µM | COLO 205 > 100 µM | HCC 2998 66.8 µM | HCT-116 53.5 µM | HL-60 > 100 µM | K562 > 100 µM | KM12 > 100 µM | M14 48.5 µM | MOLT-4 > 100 µM | Malme-3M 32.7 µM | NCI-H460 > 100 µM | OVCAR-3 37.3 µM | SF-295 > 100 µM | SK-MEL-2 22.6 µM | SW-620 75.5 µM | UACC-62 47.2 µM

O=C(Nc1cc(Cl)c(Cl)cc1Cl)C(=O)C1C=CCS1(=O)=O (stereo not given)
inactive: A498 > 100 µM | CCRF-CEM > 100 µM | COLO 205 > 100 µM | HCC 2998 > 100 µM | HCT-116 > 100 µM | HL-60 > 100 µM | K562 > 100 µM | KM12 > 100 µM | M14 > 100 µM | MOLT-4 > 100 µM | Malme-3M > 100 µM | NCI-H460 > 100 µM | OVCAR-3 > 100 µM | SF-295 > 100 µM | SK-MEL-2 > 100 µM | SW-620 > 100 µM | UACC-62 > 100 µM

O=[N+]([O-])c1ccc(/C=N/C2CCCCC2)cc1
inactive: A498 > 100 µM | CCRF-CEM > 100 µM | COLO 205 > 100 µM | HCC 2998 > 100 µM | HCT-116 > 100 µM | HL-60 > 100 µM | K562 > 100 µM | KM12 > 100 µM | M14 > 100 µM | MOLT-4 > 100 µM | Malme-3M > 100 µM | NCI-H460 > 100 µM | OVCAR-3 > 100 µM | SF-295 > 100 µM | SK-MEL-2 > 100 µM | SW-620 > 100 µM | UACC-62 > 100 µM

CC1=CCC(C(C)(C)NC(=O)c2ccccc2)C/C1=N/O (stereo not given)
inactive: CCRF-CEM > 100 µM | COLO 205 > 100 µM | HCC 2998 > 100 µM | HCT-116 > 100 µM | HL-60 > 100 µM | K562 > 100 µM | KM12 > 100 µM | M14 > 100 µM | MCF7 > 100 µM | MDA-MB-231 > 100 µM | MOLT-4 > 100 µM | NCI-H460 > 100 µM | OVCAR-3 > 100 µM | SF-295 > 100 µM | SW-620 > 100 µM | UACC-62 > 100 µM

CCC(C)(O)c1cn(-c2cccc(S(=O)(=O)O)c2)nn1 (stereo not given)
inactive: A498 > 100 µM | CCRF-CEM > 100 µM | COLO 205 > 100 µM | HCC 2998 > 100 µM | HCT-116 > 100 µM | HL-60 > 100 µM | K562 > 100 µM | KM12 > 100 µM | M14 > 100 µM | MOLT-4 > 100 µM | Malme-3M > 100 µM | NCI-H460 > 100 µM | OVCAR-3 > 100 µM | SF-295 > 100 µM | SK-MEL-2 > 100 µM | SW-620 > 100 µM | UACC-62 > 100 µM

O=S1(=O)OCCOS(=O)(=O)C1(Cl)Cl
inactive: A498 > 100 µM | CCRF-CEM 54.2 µM | COLO 205 > 100 µM | HCC 2998 > 100 µM | HCT-116 > 100 µM | HL-60 42 µM | K562 > 100 µM | KM12 > 100 µM | M14 > 100 µM | MOLT-4 42.2 µM | Malme-3M > 100 µM | OVCAR-3 > 100 µM | SF-295 46 µM | SK-MEL-2 > 100 µM | SW-620 > 100 µM | UACC-62 31.3 µM

COC(=O)C(C(=O)C(=O)Nc1nnc(S)[nH]1)c1csc(N)n1 (stereo not given)
inactive: A498 > 100 µM | CCRF-CEM > 100 µM | COLO 205 > 100 µM | HCC 2998 > 100 µM | HCT-116 > 100 µM | HL-60 > 100 µM | K562 > 100 µM | KM12 > 100 µM | M14 > 100 µM | MOLT-4 > 100 µM | Malme-3M > 100 µM | NCI-H460 > 100 µM | OVCAR-3 > 100 µM | SF-295 > 100 µM | SK-MEL-2 > 100 µM | SW-620 > 100 µM | UACC-62 > 100 µM

COc1ccc(NC(=O)CCc2cc(C(C)(C)C)[nH]n2)cc1
inactive: A498 > 100 µM | CCRF-CEM > 100 µM | COLO 205 > 100 µM | HCC 2998 > 100 µM | HCT-116 > 100 µM | HL-60 > 100 µM | K562 > 100 µM | KM12 > 100 µM | M14 > 100 µM | MOLT-4 > 100 µM | Malme-3M > 100 µM | NCI-H460 > 100 µM | OVCAR-3 > 100 µM | SF-295 > 100 µM | SK-MEL-2 > 100 µM | SW-620 > 100 µM | UACC-62 > 100 µM

CCOC(=O)CC1(C(=O)OCC)c2[nH]c3ccccc3c2CCN1Cc1ccccc1 (stereo not given)
inactive: A498 19.3 µM | CCRF-CEM 23.7 µM | COLO 205 16.7 µM | HCC 2998 13.7 µM | HCT-116 17 µM | HL-60 21.6 µM | K562 16.9 µM | KM12 17.7 µM | M14 18.6 µM | MOLT-4 13.5 µM | Malme-3M 17.8 µM | NCI-H460 19 µM | OVCAR-3 14.1 µM | SF-295 16.8 µM | SK-MEL-2 17.9 µM | SW-620 31.7 µM | UACC-62 17.1 µM
